What is called GI50 is the concentration at which growth is held to half of that of the control.

Several values for one entry are separate records, joined by “and”; a condition that tells them apart may be missing. Equal values may be shown once.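 Cells were grown in 96-well plates and exposed to each compound for 48 hours at five concentrations; endpoints were interpolated linearly between bracketing concentrations, or set to the highest concentration if not reached. The concentration for 50% growth inhibition is given as GI50.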 Activity calls are given as the source filed them. No stated cut-off is given here; in the data, active = GI50 up to about 1.1 µM and inactive = higher. Where only a bound is given, the exact number is not on record here.

This note sets out measurements from ChEMBL document CHEMBL1201862, “PubChem BioAssay data set” (2004).

Some test systems named below: UACC-62; CAKI-1; HCC 2998; 786-0; SNB-19; HT-29; SF-539; LOX IMVI; SK-MEL-5; U-251; NCI-H460; HCT-116; HCT-15; CCRF-CEM; UACC-257; SF-295; SNB-75.
Common to all, as to test: DTP human tumour cell line panel, 48 h

Regarding `CSC1CC2C(CC1(C)O)C2(C)C` (configuration not stated), the GI50 with UACC-62, in the assay on CAKI-1, in the assay on HCC 2998, in the assay on 786-0, in the assay on SNB-19 and in the assay on HT-29 was > 100 µM (inactive) in each case. Moreover, the GI50 is > 100 µM (inactive) in the assay on SF-539; 95.5 µM (inactive) in the assay on LOX IMVI; > 100 µM (inactive) and 53.8 µM (inactive) in the assay on SK-MEL-5; > 100 µM (inactive) with U-251; > 100 µM (inactive) in the assay on NCI-H460; > 100 µM (inactive) in the assay with HCT-116. For the same compound, the GI50 with HCT-15 was above 100 µM.
In the case of `Cc1nc2ccccc2c(=O)n1NC(=S)Nc1cccc(Cl)c1`, the GI50 in the assay with UACC-62, in the assay with CAKI-1, with 786-0, with CCRF-CEM, in the assay on HT-29 and in the assay with SF-539 was > 100 µM (inactive) throughout. Further, the GI50 in the assay on LOX IMVI was 65.5 µM (inactive); with SK-MEL-5 it was > 100 µM (inactive); with UACC-257 it was > 100 µM (inactive); in the assay on U-251, > 100 µM (inactive); in the assay with SF-295, > 100 µM (inactive); in the assay with NCI-H460, > 100 µM (inactive). For the same compound, the GI50 with HCT-116 is > 100 µM (inactive); with SNB-75, 72.9 µM (inactive); with HCT-15 it was above 100 µM.
`CC1=N/C(=C\c2c(O)ccc3ccccc23)C(=O)O1`: the GI50 with UACC-62, with HCC 2998, in the assay with 786-0, in the assay on CCRF-CEM, in the assay on SNB-19 and in the assay with HT-29 was > 100 µM (inactive) throughout. Moreover, the GI50 in the assay with SF-539, in the assay on SK-MEL-5, in the assay with UACC-257, in the assay on U-251, in the assay on SF-295 and in the assay on NCI-H460 was > 100 µM (inactive) in each case. Moreover, the GI50 was > 100 µM (inactive) in the assay on HCT-116, 0.849 µM (active) in the assay on SNB-75 and above 100 µM in the assay with HCT-15.
In the case of `[N-]=[N+]=NC1C2CC3CC(C2)CC1C3` (configuration not stated), the GI50 with UACC-62, with CAKI-1, with HCC 2998, in the assay on 786-0, in the assay on CCRF-CEM and with SNB-19 was > 100 µM (inactive) each time. Also, the GI50 with HT-29, with SF-539, with LOX IMVI, in the assay on SK-MEL-5, in the assay on UACC-257 and with U-251 was > 100 µM (inactive) each time. Further, the GI50 in the assay with SF-295, with NCI-H460, in the assay on HCT-116 and in the assay on SNB-75 was > 100 µM (inactive) throughout.
With `COc1ccc(C(=O)C(c2ccc(OC)cc2)C2OC(=O)C(Cl)=C2Cl)cc1` (configuration not stated), the GI50 with UACC-62, in the assay with CAKI-1, with HCC 2998, in the assay on 786-0, in the assay with CCRF-CEM and in the assay on SNB-19 was > 100 µM (inactive) in each case. Also, the GI50 in the assay on HT-29, with SF-539, with LOX IMVI, in the assay with SK-MEL-5, in the assay on UACC-257 and in the assay on U-251 was > 100 µM (inactive) throughout. Further, the GI50 was > 100 µM (inactive) in the assay on SF-295, > 100 µM (inactive) in the assay with NCI-H460, > 100 µM (inactive) with HCT-116 and above 100 µM in the assay on HCT-15.
`OCC(O)C(OC1OC(CO)C(O)C(O)C1O)c1nn(-c2ccc(Cl)cc2)c2nc3cc(Cl)c(Cl)cc3nc12` (configuration not stated): the GI50 in the assay on UACC-62, with HCC 2998, with 786-0, with CCRF-CEM, with SNB-19 and with HT-29 was > 100 µM (inactive) each time. For the same compound, the GI50 in the assay with SF-539, with LOX IMVI, in the assay on UACC-257, in the assay on U-251, in the assay on SF-295 and with NCI-H460 was > 100 µM (inactive) throughout. The GI50 in the assay on HCT-116 was > 100 µM (inactive); in the assay with SNB-75, > 100 µM (inactive); in the assay with HCT-15 it was above 100 µM.
Regarding `Cc1ccccc1C(C#N)/C(=N/NC(N)=S)C(=O)Nc1c(C)cccc1C` (configuration not stated), the GI50 in the assay with UACC-62 was 33.4 µM (inactive); with HCC 2998, > 100 µM (inactive); with 786-0, > 100 µM (inactive); in the assay on CCRF-CEM, > 100 µM (inactive); in the assay with SNB-19, > 100 µM (inactive); in the assay with HT-29, > 100 µM (inactive). Moreover, the GI50 in the assay on LOX IMVI was > 100 µM (inactive); in the assay on SK-MEL-5, 46.3 µM (inactive); in the assay on UACC-257, > 100 µM (inactive); with U-251 it was > 100 µM (inactive); in the assay on SF-295, > 100 µM (inactive); in the assay with NCI-H460, > 100 µM (inactive). The GI50 in the assay on HCT-116 and with SNB-75 was > 100 µM (inactive) in each case.
Regarding `Clc1ccc(OCCSCCCCCCCCCCSCCOc2ccc(Cl)cc2)cc1`, the GI50 in the assay on UACC-62, in the assay on CAKI-1, with HCC 2998, in the assay with 786-0, in the assay on CCRF-CEM and in the assay with SNB-19 was > 100 µM (inactive) in each case. Moreover, the GI50 in the assay with HT-29, in the assay with SF-539, in the assay with LOX IMVI, in the assay on SK-MEL-5, in the assay with UACC-257 and with U-251 was > 100 µM (inactive) in each case. For the same compound, the GI50 with SF-295 is > 100 µM (inactive); in the assay with NCI-H460, > 100 µM (inactive); in the assay on SNB-75, > 100 µM (inactive); in the assay on HCT-15, above 100 µM.
Take `CN1CCCC2[C@@H]3CCC4=C(O)C(=O)CC[C@]4(C)C3CC[C@@]21C` (some centres not stated): the GI50 in the assay with UACC-62, in the assay on CAKI-1, with 786-0, with CCRF-CEM, in the assay on SNB-19 and with HT-29 was > 100 µM (inactive) in each case. The GI50 in the assay with SF-539, in the assay on LOX IMVI, in the assay on SK-MEL-5, in the assay on UACC-257, in the assay on U-251 and in the assay with SF-295 was > 100 µM (inactive) throughout. Further, the GI50 with NCI-H460 is > 100 µM (inactive); in the assay with HCT-116 it was > 100 µM (inactive); with SNB-75, > 100 µM (inactive); in the assay on HCT-15, above 100 µM.
As for `COC(=O)C12C3C4C1C1C2C3C41C(=O)OC(C)(C)C` (configuration not stated), the GI50 with UACC-62 is > 100 µM (inactive); with CAKI-1 it was > 100 µM (inactive); with 786-0, > 100 µM (inactive); with CCRF-CEM it was > 71.3 µM (inactive); in the assay on SNB-19, > 100 µM (inactive); in the assay with HT-29 it was > 100 µM (inactive). Besides, the GI50 is > 100 µM (inactive) in the assay with SF-539; > 42.9 µM (inactive) with LOX IMVI; > 100 µM (inactive) in the assay with SK-MEL-5; > 100 µM (inactive) in the assay on UACC-257; > 100 µM (inactive) in the assay with U-251; > 100 µM (inactive) with SF-295. Also, the GI50 with NCI-H460 is > 63.5 µM (inactive); in the assay with HCT-116, 26.7 µM (inactive); with SNB-75, > 100 µM (inactive); in the assay on HCT-15, above 100 µM.
Take `Cc1cc2c(=O)cc(-c3ccc(C(F)(F)F)cc3)oc2c(C(=O)O)c1C`: the GI50 with UACC-62, in the assay with CAKI-1, in the assay on 786-0, in the assay on CCRF-CEM, in the assay on SNB-19 and in the assay with HT-29 was > 100 µM (inactive) each time. In addition, the GI50 in the assay on SF-539, in the assay on LOX IMVI, with SK-MEL-5, with UACC-257, in the assay on U-251 and in the assay with SF-295 was > 100 µM (inactive) each time. Besides, the GI50 with NCI-H460 was > 100 µM (inactive); in the assay on HCT-116 it was > 100 µM (inactive); in the assay on SNB-75, > 100 µM (inactive); in the assay with HCT-15, above 100 µM.
`c1ccc(C2[C@@H]3CCCc4ccccc4C3=NN2c2ccccc2)cc1` (some centres not stated): the GI50 in the assay on HCC 2998 was > 100 µM (inactive); in the assay with 786-0, > 100 µM (inactive); in the assay with CCRF-CEM, 87.7 µM (inactive); with SNB-19, > 100 µM (inactive); in the assay on HT-29, 61.7 µM (inactive); in the assay with LOX IMVI it was 40.8 µM (inactive). The GI50 in the assay on SK-MEL-5 was 18.8 µM (inactive); with UACC-257, > 100 µM (inactive); in the assay with U-251, > 100 µM (inactive); in the assay on SF-295, > 100 µM (inactive); with NCI-H460 it was > 100 µM (inactive); in the assay on HCT-116, 42 µM (inactive). In the assay with HCT-15, this compound showed a GI50 of 52.5 µM.
With `Oc1cc(-c2ccccn2)nc2ccc(Cl)cc12`, the GI50 is 28.7 µM (inactive) in the assay with UACC-62; 58.9 µM (inactive) in the assay with HCC 2998; 72.9 µM (inactive) in the assay with 786-0; 36.5 µM (inactive) with CCRF-CEM; > 100 µM (inactive) in the assay on SNB-19; 33 µM (inactive) in the assay on HT-29. The GI50 with SF-539 was 31.8 µM (inactive); in the assay on LOX IMVI it was 30.8 µM (inactive); in the assay on UACC-257 it was 31.7 µM (inactive); in the assay with NCI-H460 it was 38.1 µM (inactive); in the assay with SNB-75, 18.8 µM (inactive).
